The format of series [1] is in vivo, male CF-1 mice. The conditions noted are these: for AUC0→720min / Cmax / Tmax: EGCG 100 mg/kg i.g.
Series [2] deals with T1, catechol-O-methyl transferase (COMT) (Mus musculus, UniProt O88587).
T1 sequence (O88587 1-265): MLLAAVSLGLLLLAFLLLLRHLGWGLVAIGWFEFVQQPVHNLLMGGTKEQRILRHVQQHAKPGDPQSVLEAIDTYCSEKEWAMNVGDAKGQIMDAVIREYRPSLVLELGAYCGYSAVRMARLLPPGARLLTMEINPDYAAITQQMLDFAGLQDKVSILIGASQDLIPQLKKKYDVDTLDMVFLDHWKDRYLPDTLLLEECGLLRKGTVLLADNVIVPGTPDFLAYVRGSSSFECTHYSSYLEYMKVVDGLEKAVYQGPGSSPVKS
Kind of series: Fraction of unmethylated total EGCG. The format is in vivo, male CF-1 mice.

Series [3] relates to human lung cancer cells. The conditions noted are these: human lung cancer cells in vitro; ref Forester & Lambert, 2014; cited from earlier work.
The test system of series [4] is murine lung cancer cells. The conditions noted are these: murine lung cancer cells in vitro; ref Forester & Lambert, 2014; cited from earlier work.
The test system of series [5] is COMT. The conditions noted are these: ref Wang, Heber, & Henning, 2012; cited from earlier work.

Structures are written as SMILES. Where two headings read alike, the source gives them in different places.

Turning to `O=C(O[C@@H]1Cc2c(O)cc(O)cc2O[C@@H]1c1cc(O)c(O)c(O)c1)c1cc(O)c(O)c(O)c1` [EGCG, (−)-epigallocatechin-3-gallate], the AUC0→720min is listed as 39152.8 ± 8338.2 (nmol/g)•min in series [1] (Cecum, TOL (+) 30 mg/kg i.g.); 41580.2 ± 10560.6 (nmol/g)•min in series [1] (Cecum, TOL (−)); 18631.3 ± 2844.0 (nmol/g)•min in series [1] (Colon, TOL (+) 30 mg/kg i.g.); 26301.3 ± 8881.3 (nmol/g)•min in series [1] (Colon, TOL (−)); 461.7 ± 358.5 (nmol/g)•min in series [1] (Kidney, TOL (+) 30 mg/kg i.g.); 95.7 ± 5.6 (nmol/g)•min in series [1] (Kidney, TOL (−)). The AUC0→720min in series [1] (Liver, TOL (+) 30 mg/kg i.g.) was 1324.8 ± 390.5 (nmol/g)•min; in series [1] (Liver, TOL (−)), 871.5 ± 401.9 (nmol/g)•min; in series [1] (Lung, TOL (+) 30 mg/kg i.g.) it was 1002.1 ± 682.1 (nmol/g)•min; in series [1] (Lung, TOL (−)), 203.3 ± 156.4 (nmol/g)•min; in series [1] (Plasma, TOL (+) 30 mg/kg i.g.), 154887.7 ± 39082.1 nM·min; in series [1] (Plasma, TOL (−)) it was 245330.8 ± 74700.1 nM·min. Also, the Cmax in series [1] (Cecum, TOL (+) 30 mg/kg i.g.) is on record as 97.7 ± 19.4 nmol/g; in series [1] (Cecum, TOL (−)), 117.7 ± 31.7 nmol/g; in series [1] (Colon, TOL (+) 30 mg/kg i.g.), 37.6 ± 5.8 nmol/g; in series [1] (Colon, TOL (−)), 63.8 ± 9.6 nmol/g; in series [1] (Kidney, TOL (+) 30 mg/kg i.g.), 2.0 ± 1.7 nmol/g; in series [1] (Kidney, TOL (−)) it was 0.4 ± 0.1 nmol/g. Also, the Cmax in series [1] (Liver, TOL (+) 30 mg/kg i.g.) amounted to 2.7 ± 0.7 nmol/g; in series [1] (Liver, TOL (−)), 2.2 ± 0.9 nmol/g; in series [1] (Lung, TOL (+) 30 mg/kg i.g.), 23.3 ± 20.8 nmol/g; in series [1] (Lung, TOL (−)), 1.4 ± 1.2 nmol/g; in series [1] (Plasma, TOL (+) 30 mg/kg i.g.) it was 1530 ± 345 nM; in series [1] (Plasma, TOL (−)), 1190 ± 315 nM. For the same molecule, the Tmax – broadly, the time at which the peak concentration occurs – in series [1] (Cecum, TOL (+) 30 mg/kg i.g.) was 7.555 ± 2.118 h; in series [1] (Cecum, TOL (−)), 5.013 ± 1.66 h; in series [1] (Colon, TOL (+) 30 mg/kg i.g.) it was 4 ± 1 h; in series [1] (Colon, TOL (−)), 7 ± 2.645 h; in series [1] (Kidney, TOL (+) 30 mg/kg i.g.) it was 4.445 ± 3.783 h; in series [1] (Kidney, TOL (−)), 6.028 ± 3.44 h. For the same molecule, the Tmax in series [1] (Liver, TOL (+) 30 mg/kg i.g.) is 3.528 ± 1.792 h; in series [1] (Liver, TOL (−)), 3.333 ± 0.918 h; in series [1] (Lung, TOL (+) 30 mg/kg i.g.), 2.792 ± 1.893 h; in series [1] (Lung, TOL (−)), 2.355 ± 1.38 h; in series [1] (Plasma, TOL (+) 30 mg/kg i.g.) it was 0.208 ± 0.0567 h; in series [1] (Plasma, TOL (−)), 0.278 ± 0.15 h. For the same molecule, the Tmax was determined as 0.333 h in series [1] (Urine (pooled), TOL (+) 30 mg/kg i.g.) and 0.083 h in series [1] (Urine (pooled), TOL (−)). In addition, the “unmethylated EGCG as fraction of the total” value in series [2] (plasma, EGCG 100 mg/kg i.g. with co-administration of TOL 30 mg/kg i.g.) was determined as 87.9%; in series [2] (plasma, mice treated with EGCG 100 mg/kg i.g. only) it was 63.4%; in series [2] (urine, EGCG 100 mg/kg i.g. plus TOL 30 mg/kg i.g.), 81.8%; in series [2] (urine, mice treated with EGCG 100 mg/kg i.g. only), 29.2%.
For `CCN(CC)C(=O)/C(C#N)=C/c1cc(O)c(O)c([N+](=O)[O-])c1` [entacapone], the “growth inhibition in combination with EGCG” value in series [3] and in series [4] was “synergistically inhibited” throughout.
As for `Cc1ccc(C(=O)c2cc(O)c(O)c([N+](=O)[O-])c2)cc1` [TOL, tolcapone, reference compound], the “effect on Cmax of unmethylated, unconjugated EGCG” value was “did not affect” in series [1] (cecum or colon, TOL co-treatment vs EGCG only); “tended to increase” in series [1] (plasma, liver, kidney, lung and urine, TOL co-administration vs EGCG only). In addition, the “effect on AUC0→720min of unmethylated, unconjugated EGCG” value was “tended to increase” in series [1] (liver, kidney, lung and urine, TOL co-administration vs EGCG only); “nor did it affect” in series [1] (plasma, cecum and colon, TOL co-treatment vs EGCG only). In addition, the “effect on levels of unmetabolised (unmethylated, unconjugated) EGCG” value in series [1] (plasma, co-treatment TOL 30 mg/kg + EGCG 100 mg/kg i.g. vs EGCG only (Fig. 2)) is on record as “did not significantly affect”. For the same molecule, the “growth inhibition in combination with EGCG” value in series [3] and in series [4] was “synergistically inhibited” throughout.
For the molecule `O=c1c(O)c(-c2ccc(O)c(O)c2)oc2cc(O)cc(O)c12` [quercetin], the “increase of the levels of EGCG found in the lung and kidney” value in series [5] is reported as “greater than 2 fold”.

Values taken from PMC4509505 (Journal of functional foods, 2015).
